Experiments:
Type in all cases: in vivo
[1] = test system: giant foxtail (Setaria faberii); assay: Test A preemergence; settings: Setaria faberi, pre-emergence, 240 h, 0 to 100 scale where 0 is no effect and 100 is complete control, read-out: Foxtail, Giant plant response rating; for pest or weed control at 31 g/ha: 31 g ai/ha, Preemergence; for pest or weed control at 125 g/ha: 125 g ai/ha, preemergence, visual injury rating, approximately 10 d
How it was run: (§1)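 Ratings of 0 (no effect) to 100 (complete control) come from visual comparison with untreated controls roughly 10 d after treatment. Test chemicals, formulated in a non-phytotoxic solvent mixture with surfactant, were applied either as a preemergence directed soil spray on seeded soil or postemergence to one- to two-leaf plants 2 to 10 cm tall.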

[2] = test system: barnyardgrass (Echinochloa crus-galli); assay: Test A preemergence; settings: Echinochloa crus-galli, pre-emergence, 240 h, 0 to 100 scale where 0 is no effect and 100 is complete control, read-out: Barnyardgrass plant response rating; for pest or weed control at 31 g/ha: 31 g ai/ha, Preemergence; for pest or weed control at 125 g/ha: 125 g ai/ha, preemergence, visual injury rating, approximately 10 d
How it was run: as §1

[3] = test system: pigweed (Amaranthus retroflexus); assay: Test A preemergence; settings: Amaranthus retroflexus, pre-emergence, 240 h, 0 to 100 scale where 0 is no effect and 100 is complete control, read-out: Pigweed plant response rating; for pest or weed control at 31 g/ha: 31 g ai/ha, Preemergence; for pest or weed control at 125 g/ha: 125 g ai/ha, preemergence, visual injury rating, approximately 10 d
[4] = test system: ryegrass, Italian (Italian ryegrass, Lolium multiflorum); assay: Test A preemergence; settings: Lolium multiflorum, pre-emergence, 240 h, 0 to 100 scale where 0 is no effect and 100 is complete control, read-out: Ryegrass, Italian plant response rating; for pest or weed control at 31 g/ha: 31 g ai/ha, Preemergence; for pest or weed control at 125 g/ha: 125 g ai/ha, preemergence, visual injury rating, approximately 10 d
How it was run: as §1

[5] = test system: ragweed (common ragweed, Ambrosia elatior); assay: Test A preemergence; settings: Ambrosia artemisiifolia, pre-emergence, 240 h, 0 to 100 scale where 0 is no effect and 100 is complete control, read-out: Ragweed plant response rating; for pest or weed control at 31 g/ha: 31 g ai/ha, Preemergence; for pest or weed control at 125 g/ha: 125 g ai/ha, preemergence, visual injury rating, approximately 10 d
How it was run: as §1

Kochia (Kochia scoparia) [6] = assay: Test A preemergence; settings: Bassia scoparia, pre-emergence, 240 h, 0 to 100 scale where 0 is no effect and 100 is complete control, read-out: Kochia plant response rating; for pest or weed control at 31 g/ha: 31 g ai/ha, Preemergence; for pest or weed control at 125 g/ha: 125 g ai/ha, preemergence, visual injury rating, approximately 10 d
How it was run: as §1

rice (Oryra sativa) = assay: Test B flooded paddy test; settings: Oryza sativa, 250 g ai/ha, Flood; 0 to 100 scale where 0 is no effect and 100 is complete control; read-out: Rice plant response rating
How it was run: (§2)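 Response scored visually against untreated controls, 0 = no effect and 100 = complete control, 13–15 d after treatment in the greenhouse. Compounds added to paddy water held 3 cm above soil surface. Treatment given at 2-leaf stage.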

[7] = test system: ducksalad (Heteranthera limosa); assay: Test B flooded paddy test; settings: Heteranthera limosa, 250 g ai/ha, Flood; 0 to 100 scale where 0 is no effect and 100 is complete control; read-out: Ducksalad plant response rating
How it was run: as §2

[8] = test system: sedge, umbrella (small-flower umbrella sedge, Cyperus difformis); assay: Test B flooded paddy test; settings: Cyperus difformis, 250 g ai/ha, Flood; 0 to 100 scale where 0 is no effect and 100 is complete control; read-out: Sedge, Umbrella plant response rating
How it was run: as §2

[9] = test system: barnyardgrass (Echinochloa crus-galli); assay: Test B flooded paddy test; settings: Echinochloa crus-galli, 250 g ai/ha, Flood; 0 to 100 scale where 0 is no effect and 100 is complete control; read-out: Barnyardgrass plant response rating
How it was run: as §2

[10] = test system: wheat (Triticum aestivum); assay: Test A postemergence; settings: Triticum aestivum, post-emergence, 240 h, Postemergence, read-out: Wheat plant response rating (0 to 100 scale); for plant injury at 125 g/ha: 125 g ai/ha, visual rating about 10 d after treatment; for plant injury at 31 g/ha: 31 g ai/ha, 0 is no effect, 100 is complete control
How it was run: as §1

[11] = test system: blackgrass (Alopecurus myosuroides); assay: Test A postemergence; settings: Alopecurus myosuroides, post-emergence, 240 h, Postemergence, read-out: Blackgrass plant response rating (0 to 100 scale); for pest or weed control at 125 g/ha: 125 g ai/ha, visual rating about 10 d after treatment; for pest or weed control at 31 g/ha: 31 g ai/ha, 0 is no effect, 100 is complete control
How it was run: as §1

[12] = test system: giant foxtail (Setaria faberii); assay: Test A postemergence; settings: Setaria faberi, post-emergence, 240 h, Postemergence, read-out: Foxtail, Giant plant response rating (0 to 100 scale); for pest or weed control at 125 g/ha: 125 g ai/ha, visual rating about 10 d after treatment; for pest or weed control at 31 g/ha: 31 g ai/ha, 0 is no effect, 100 is complete control
How it was run: as §1

corn (Zea mays) = assay: Test A postemergence; settings: Zea mays, post-emergence, 240 h, Postemergence, read-out: Corn plant response rating (0 to 100 scale); for plant injury at 125 g/ha: 125 g ai/ha, visual rating about 10 d after treatment; for plant injury at 31 g/ha: 31 g ai/ha, 0 is no effect, 100 is complete control
How it was run: as §1

[13] = test system: barnyardgrass (Echinochloa crus-galli); assay: Test A postemergence; settings: Echinochloa crus-galli, post-emergence, 240 h, Postemergence; for pest or weed control at 125 g/ha: 125 g ai/ha, visual rating about 10 d after treatment, read-out: Barnyardgrass plant response rating (0 to 100 scale, 0 no effect, 100 complete control); for pest or weed control at 31 g/ha: 31 g ai/ha, 0 is no effect, 100 is complete control, read-out: Barnyardgrass plant response rating (0 to 100 scale)
How it was run: as §1

[14] = test system: Galium (catchweed bedstraw, Galium aparine); assay: Test A postemergence; settings: Galium, post-emergence, 240 h, Postemergence, read-out: Galium plant response rating (0 to 100 scale); for pest or weed control at 125 g/ha: 125 g ai/ha, visual rating about 10 d after treatment; for pest or weed control at 31 g/ha: 31 g ai/ha, 0 is no effect, 100 is complete control
How it was run: as §1

[15] = test system: pigweed (Amaranthus retroflexus); assay: Test A postemergence; settings: Amaranthus retroflexus, post-emergence, 240 h, Postemergence, read-out: Pigweed plant response rating (0 to 100 scale); for pest or weed control at 125 g/ha: 125 g ai/ha, visual rating about 10 d after treatment; for pest or weed control at 31 g/ha: 31 g ai/ha, 0 is no effect, 100 is complete control
How it was run: as §1

[16] = test system: ryegrass, Italian (Italian ryegrass, Lolium multiflorum); assay: Test A postemergence; settings: Lolium multiflorum, post-emergence, 240 h, Postemergence, read-out: Ryegrass, Italian plant response rating (0 to 100 scale); for pest or weed control at 125 g/ha: 125 g ai/ha, visual rating about 10 d after treatment; for pest or weed control at 31 g/ha: 31 g ai/ha, 0 is no effect, 100 is complete control
How it was run: as §1

[17] = test system: ragweed (common ragweed, Ambrosia elatior); assay: Test A postemergence; settings: Ambrosia artemisiifolia, post-emergence, 240 h, Postemergence, read-out: Ragweed plant response rating (0 to 100 scale); for pest or weed control at 125 g/ha: 125 g ai/ha, visual rating about 10 d after treatment; for pest or weed control at 31 g/ha: 31 g ai/ha, 0 is no effect, 100 is complete control
How it was run: as §1

Kochia (Kochia scoparia) [18] = assay: Test A postemergence; settings: Bassia scoparia, post-emergence, 240 h, Postemergence, read-out: Kochia plant response rating (0 to 100 scale); for pest or weed control at 125 g/ha: 125 g ai/ha, visual rating about 10 d after treatment; for pest or weed control at 31 g/ha: 31 g ai/ha, 0 is no effect, 100 is complete control
How it was run: as §1

SMILES	pest or weed control at 31 g/ha [1] [%]	pest or weed control at 125 g/ha [1] [%]	pest or weed control at 31 g/ha [2] [%]	pest or weed control at 125 g/ha [2] [%]	pest or weed control at 31 g/ha [3] [%]	pest or weed control at 125 g/ha [3] [%]	pest or weed control at 31 g/ha [4] [%]	pest or weed control at 125 g/ha [4] [%]	pest or weed control at 31 g/ha [5] [%]	pest or weed control at 125 g/ha [5] [%]	pest or weed control at 31 g/ha (Kochia (Kochia scoparia) [6]) [%]	pest or weed control at 125 g/ha (Kochia (Kochia scoparia) [6]) [%]	pest or weed control at 250 g/ha (rice (Oryra sativa)) [%]	pest or weed control at 250 g/ha [7] [%]	pest or weed control at 250 g/ha [8] [%]	pest or weed control at 250 g/ha [9] [%]	plant injury at 125 g/ha [10] [%]	plant injury at 31 g/ha [10] [%]	pest or weed control at 125 g/ha [11] [%]	pest or weed control at 31 g/ha [11] [%]	also measured
O=C(Nc1cccc(F)c1F)C1C(=O)N(CC(F)F)CC1c1cccc(C(F)(F)F)c1 (stereo not drawn) [Compound 1294]	0	30	0	50	0	0	0	0	0	0	0	0	0	0	0	0	0	0	0	0	pest or weed control at 125 g/ha [12]: 20%; pest or weed control at 31 g/ha [12]: 0%; plant injury at 125 g/ha (corn (Zea mays)): 0%; plant injury at 31 g/ha (corn (Zea mays)): 0%; pest or weed control at 125 g/ha [13]: 20%; pest or weed control at 31 g/ha [13]: 0%; pest or weed control at 125 g/ha [14]: 0%; pest or weed control at 31 g/ha [14]: 0%; pest or weed control at 125 g/ha [15]: 0%; pest or weed control at 31 g/ha [15]: 0%; pest or weed control at 125 g/ha [16]: 0%; pest or weed control at 31 g/ha [16]: 0%; pest or weed control at 125 g/ha [17]: 0%; pest or weed control at 31 g/ha [17]: 0%; pest or weed control at 125 g/ha (Kochia (Kochia scoparia) [18]): 0%; pest or weed control at 31 g/ha (Kochia (Kochia scoparia) [18]): 0%
O=C(Nc1ccccc1F)[C@H]1C(=O)N(CC(F)F)C[C@@H]1c1cccc(C(F)(F)F)c1 [Compound 1295]	0	40	0	0	0	0	0	0	0	0	0	0	0	0	0	0	0	0	0	0	pest or weed control at 125 g/ha [12]: 0%; pest or weed control at 31 g/ha [12]: 0%; plant injury at 125 g/ha (corn (Zea mays)): 0%; plant injury at 31 g/ha (corn (Zea mays)): 0%; pest or weed control at 125 g/ha [13]: 0%; pest or weed control at 31 g/ha [13]: 0%; pest or weed control at 125 g/ha [14]: 0%; pest or weed control at 31 g/ha [14]: 0%; pest or weed control at 125 g/ha [15]: 0%; pest or weed control at 31 g/ha [15]: 0%; pest or weed control at 125 g/ha [16]: 0%; pest or weed control at 31 g/ha [16]: 0%; pest or weed control at 125 g/ha [17]: 0%; pest or weed control at 31 g/ha [17]: 0%; pest or weed control at 125 g/ha (Kochia (Kochia scoparia) [18]): 0%; pest or weed control at 31 g/ha (Kochia (Kochia scoparia) [18]): 0%

Reference: patent publication US12077503B2, “Substituted cyclic amides and their use as herbicides” (FMC CORPORATION, priority 2015, dated 2024)
